Reference: patent US20250381179A1, “CHROMAN-BASED COMPOUNDS FOR TREATING CANCER” (priority 2024, published 2025)
Like-named read-outs stand apart in the source and are kept apart here.

What was measured:
[1] = system: CYP3A4; assay: CYP3A4 induction in vitro (activity, mRNA); format: in vitro ADME
[2] = target: T1, CYP2B6 (Homo sapiens, UniProt P20813)
T1 sequence (P20813 1-491): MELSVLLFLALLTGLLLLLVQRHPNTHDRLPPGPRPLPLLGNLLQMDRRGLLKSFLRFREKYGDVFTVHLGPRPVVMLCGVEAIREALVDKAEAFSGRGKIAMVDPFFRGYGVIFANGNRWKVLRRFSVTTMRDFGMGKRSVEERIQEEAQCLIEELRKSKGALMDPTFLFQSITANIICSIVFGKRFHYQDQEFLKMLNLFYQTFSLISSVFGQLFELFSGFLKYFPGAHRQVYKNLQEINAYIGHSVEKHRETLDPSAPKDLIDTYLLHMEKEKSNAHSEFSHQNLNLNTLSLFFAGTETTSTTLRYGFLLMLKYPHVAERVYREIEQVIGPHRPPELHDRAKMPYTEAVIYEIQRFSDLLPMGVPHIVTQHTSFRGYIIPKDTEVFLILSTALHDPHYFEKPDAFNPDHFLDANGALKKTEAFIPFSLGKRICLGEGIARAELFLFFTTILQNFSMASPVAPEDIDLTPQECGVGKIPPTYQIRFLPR

[3] = target: CYP2C9 (Homo sapiens, UniProt P11712)
CYP2C9, sequence (P11712 whole entry): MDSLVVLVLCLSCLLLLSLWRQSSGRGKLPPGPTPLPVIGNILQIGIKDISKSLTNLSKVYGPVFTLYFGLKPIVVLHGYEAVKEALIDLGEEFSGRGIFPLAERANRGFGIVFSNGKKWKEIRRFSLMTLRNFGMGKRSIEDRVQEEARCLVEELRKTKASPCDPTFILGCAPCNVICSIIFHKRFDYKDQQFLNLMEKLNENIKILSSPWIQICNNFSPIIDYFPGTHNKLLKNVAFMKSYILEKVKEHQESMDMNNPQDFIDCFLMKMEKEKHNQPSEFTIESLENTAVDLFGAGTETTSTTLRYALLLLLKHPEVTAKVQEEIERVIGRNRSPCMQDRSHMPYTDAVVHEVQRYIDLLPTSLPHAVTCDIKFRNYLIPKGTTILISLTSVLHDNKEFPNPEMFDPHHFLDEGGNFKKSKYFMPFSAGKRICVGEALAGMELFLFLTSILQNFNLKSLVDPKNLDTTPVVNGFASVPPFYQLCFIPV

[4] = not given; remark: listed apart in the source
[5] = in vivo; conditions: female, rat, po
[6] = target: human cytochrome P450 CYP3A4 (Homo sapiens, UniProt P08684); assay: In vitro metabolism by CYP3A4; format: in vitro ADME
human cytochrome P450 CYP3A4, sequence (P08684 whole entry): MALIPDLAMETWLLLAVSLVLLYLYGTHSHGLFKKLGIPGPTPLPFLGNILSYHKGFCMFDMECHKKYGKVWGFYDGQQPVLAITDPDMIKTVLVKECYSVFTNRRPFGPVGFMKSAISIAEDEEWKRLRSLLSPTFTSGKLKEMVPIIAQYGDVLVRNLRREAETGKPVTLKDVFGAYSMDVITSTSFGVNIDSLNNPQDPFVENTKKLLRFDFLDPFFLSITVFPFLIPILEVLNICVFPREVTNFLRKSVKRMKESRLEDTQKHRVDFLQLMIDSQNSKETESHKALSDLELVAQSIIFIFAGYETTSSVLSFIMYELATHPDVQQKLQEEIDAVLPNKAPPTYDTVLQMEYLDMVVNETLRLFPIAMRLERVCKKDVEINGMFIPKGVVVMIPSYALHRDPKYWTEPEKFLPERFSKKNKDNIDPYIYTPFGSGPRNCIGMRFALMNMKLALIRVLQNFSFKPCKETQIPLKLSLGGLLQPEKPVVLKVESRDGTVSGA

[7] = system: CYP3A; assay: CYP3A direct inhibition; format: in vitro ADME; conditions: highest concentration evaluated (10 μM)

Compound: O=C1CC[C@H](N2Cc3cc(N4CCN(CC5CCN(c6ccc([C@@H]7c8ccc(O)cc8OC[C@@H]7c7ccccc7)cc6F)CC5)CC4)ccc3C2=O)C(=O)N1 [compound (1-g), (S)-3-(5-(4-((1-(2-fluoro-4-((3S,4R)-7-hydroxy-3-phenylchroman-4-yl)phenyl)piperidin-4-yl)methyl)piperazin-1-yl)-1-oxoisoindolin-2-yl)piperidine-2,6-dione]
- CYP3A4 induction (activity or mRNA expression) [1]: did not significantly induce activity or mRNA expression
- CYP2B6 time-dependent inhibition [2]: without showing time-dependent inhibition
- CYP2C9 time-dependent inhibition [3]: without showing time-dependent inhibition
- highest non-severely-toxic dose (HNSTD) (both, dog, in vivo, po, 28 day): 45 mg/kg/day
- off-target adverse toxicities (dog, in vivo): no off-target adverse toxicities observed
- key organ effects (dogs, 28-day GLP): considered on target pharmacological effects
- severely toxic dose in 10% of animals (STD10) ([4]; female, rat, in vivo, po, 28 day): 270 mg/kg/day
- off-target adverse toxicities ([4]; rat, in vivo): no off-target adverse toxicities observed
- key organ effects ([4]; rats, 28-day GLP): considered on target pharmacological effects
- AUC ([5]; AUC in the evaluated tissues (compared with plasma)): > 2800 ng·h/mL
- AUC ([5]; plasma AUC): 2800 ng·h/mL
- metabolism by CYP3A4 [6]: weakly metabolized
- CYP3A direct inhibition [7]: did not directly inhibit
